This is an account of results in publication PMC4872591, “An evaluation of Minor Groove Binders as anti-Trypanosoma brucei brucei therapeutics” (European Journal of Medicinal Chemistry, 2016).

SMILES strings stand for the structures. pIC50: −log10 of the molar value. Read-outs that look alike come from different tables or passages of the source. Marks after values point to notes of the source that are not given here.

Assay [1] deals with Bloodstream form T. b. brucei (Lister 427). The experiment in a line: Trypanosoma brucei brucei Alamar Blue assay. Format: cell-based. Particulars: Trypanosoma brucei; for IC50: values given in nM, read-out: IC50 against T. b. brucei. As to the method: IC50 values against trypanosomes were determined by Alamar Blue assay. […] After this time, 20 μL of resazurin dye (Sigma–Aldrich) solution at 0.49 mM was added. […] Output was plotted using the IC50 determination algorithm of Prism 5.0 software (GraphPad). Three independent experiments were carried out in duplicate for each compound.
Background: Alamar Blue is a resazurin reagent that responds to reducing activity.

The next assay has as its system HEK 293 cells. Kind of assay: HEK 293 cytotoxicity assay (AlamarBlue viability). Format: cell-based, human. As to conditions: for SI (selectivity index): HEK 293 IC50 taken as 20 μM (10 μM estimated for compound 21) versus T. b. brucei IC50. As to the method:
Compounds were tested in an AlamarBlue viability assay using fluorescent intensity as the output. Briefly, Human Embryonic Kidney cells (HEK 293) were cultured in DMEM (Dulbeccos Modified Eagle Medium) plus 10% Foetal Bovine Serum (FBS) in a humidified environment at 37 °C and 5% CO2. Cells were harvested at 80% confluence and plated into 384-well tissue culture treated black walled clear base plates at 2000 cells per well in a volume of 45 μl and incubated overnight to equilibrate. Five μl of compounds in serial dilution format, including Puromycin as a positive control and 0.4% DMSO as the negative control, were transferred into the plates containing the equilibrated HEK293 cells. The plates were incubated for a further 72 h before “flicking” the compound containing media out and replacing with 40 μL of 10% AlamarBlue® in DMEM without FBS. The assay plates were returned to the incubator for 6 h then the total fluorescent intensity determined at 535 nm excitation and 585 nm emission using the Perkin Elmer ENVISION 2101 Multilabel Reader. Fluorescent intensity values were normalized as percent inhibition in relation to the positive and negative controls of 5 μM Puromycin and 0.4% DMSO, respectively. The compounds were tested in two separate experiments each in duplicate point.

The subject of assay [2] is kinetoplast of trypanosome. Also on record: method as in PMID 16723581. Particulars: cited from earlier work.
Another assay relates to T. b. brucei. The experiment in a line: Fluorescence microscopy, intracellular localisation in T. b. brucei. Format: cell-based, Trypanosoma brucei brucei. Particulars: 50 μM, 2 h, FITC and DsRed filters. As to the method: Fig. 6 Intracellular localisation of fluorescent MGB in T. b. brucei. Trypanosomes were treated for 2 h with 50 μM of MGB and viewed at 100 × magnification. N = nucleus; K = kinetoplast; arrow = other organelles. Bar = 10 μm.
T. b. brucei parasites (1 × 10^7 cell/mL) were treated with 50 μM of compound 32 for 2 h at 37 °C in a humidified, 5% CO2 atmosphere. After washing in PBS, an aliquot of cells was mixed with an equal volume of 2% w/v low melting point agarose (Sigma–Aldrich) and spread onto a slide by addition of a coverslip. Slides were viewed using a Zeiss Axioplan 2 Imaging epifluorescence microscope, equipped with a digital CCD camera (Hammatsu Photonics) and a Plan[…] 100 × oil-immersion NA 1.4 objective (Carl Zeiss). FITC (excitation 450–490 nm, beamsplitter 510 nm, emission 515–565 nm) and DsRed (excitation 545/25 nm, beamsplitter 570 nm, emission 605/70 nm) filter sets were used, and images acquired using Volocity imaging software (Improvision).

Where [3] appears, read: Table 1, Alamar Blue, 48 h + 24 h, all standard deviations less than 2%, read-out: IC50 against Trypanosoma brucei brucei.
[4] abbreviates: Table 2, read-out: Trypanosoma brucei brucei IC50.

As to `Cn1cc(NC(=O)c2cc(NC(=O)c3cc(NC(=O)c4cc5ccccc5cn4)cn3C)cn2C)cc1C(=O)NCCCN1CCOCC1` [Compound 8, N-[1-Methyl-5-({[1-methyl-5-({[1-methyl-5-({[3-(4-morpholinyl)propyl]amino}carbonyl)-1H-pyrrol-3-yl]amino}carbonyl)-1H-pyrrol-3-yl]amino}carbonyl)-1H-pyrrol-3-yl]-3-isoquinolinecarboxamide], the pIC50 in assay [1] (setting [3]) and in assay [1] (setting [4]) was 8.17 throughout. Moreover, in assay [1], the IC50 (as a rule, the concentration that gives 50% inhibition) was less than 40 nM. For the same compound, the “% HEK 293 Inhibition at 20 μM” value in the assay with HEK 293 cells (20 μM, 72 h, HEK 293) was “N/A (N/A is an IC50 value > 20 μM)”. Also, the “SI (selectivity index)” value in the assay on HEK 293 cells was greater than 2941.

Turning to `N=C(N)c1ccc(OCCCCCOc2ccc(C(=N)N)cc2)cc1` [pentamidine], the “exposure time to destruction of the kinetoplast” value in assay [2] is no more than 24 h.

For `CN(C)c1ccc(/C=C/c2ccc(C(=O)Nc3cc(C(=O)Nc4cc(C(=O)NCCN5CCOCC5)n(C)c4)n(C)c3)cn2)cc1` [Compound 32, 6-{(E)-2-[4-(Dimethylamino)phenyl]ethenyl}-N-[1-methyl-5-({[1-methyl-5-({[2-(4-morpholinyl)ethyl]amino}carbonyl)-1H-pyrrol-3-yl]amino}carbonyl)-1H-pyrrol-3-yl]nicotinamide], the pIC50 (in general, −log10 of the IC50, conventionally taken in molar units) in assay [1] (setting [3]) is 6.77. Also, the “Intracellular localisation in the trypanosome” value in the assay on T. b. brucei was “localisation to the nucleic acid rich regions of the nucleus and kinetoplast”.

`CC(C)CCc1sc(NC(=O)c2cc(NC(=O)c3cc(/C=C/c4ccc([N+](=O)[O-])cc4)cn3C)cn2C)nc1C(=O)NCCN1CCOCC1` [Compound 21, 5-isopentyl-2-[({1-methyl-4-[({1-methyl-4-[(E)-2-(4-nitrophenyl)ethenyl]-1H-pyrrol-2-yl}carbonyl)amino]-1H-pyrrol-2-yl}carbonyl)amino]-N-[2-(4-morpholinyl)ethyl]-1,3-thiazole-4-carboxamide]: the pIC50 in assay [1] (setting [3]) was 8.27; in assay [1] (setting [4]), 8.27; in the assay on HEK 293 cells (Homo sapiens, HEK293, read-out: estimated IC50 against HEK 293 cells), roughly 5.00. In assay [1], the IC50 is less than 40 nM. Moreover, the “SI (selectivity index)” value in the assay with HEK 293 cells was >1851*. The inhibition (commonly the change of the read-out against control, counted positive when it falls) at 20 µM in the assay on HEK 293 cells (Homo sapiens, HEK293, 20 μM, 72 h, HEK 293) turned out to be 54%.

For the compound `CC(C)CCc1sc(NC(=O)c2cc(NC(=O)c3ccc(/C=C/c4ccc5ccccc5c4)cc3)cn2C)nc1C(=O)NCCN1CCOCC1` [Compound 20, 5-isopentyl-2-({[1-methyl-4-({4-[(E)-2-(2-naphthyl)ethenyl]benzoyl}amino)-1H-pyrrol-2-yl]carbonyl}amino)-N-[2-(4-morpholinyl)ethyl]-1,3-thiazole-4-carboxamide], the pIC50 in assay [1] (setting [3]) and in assay [1] (setting [4]) was 7.40 throughout. Also, the IC50 in assay [1] was less than 40 nM. Further, the “% HEK 293 Inhibition at 20 μM” value in the assay with HEK 293 cells (20 μM, 72 h, HEK 293) is recorded as “N/A (N/A is an IC50 value > 20 μM)”. Besides, in the assay on HEK 293 cells, the “SI (selectivity index)” value is reported as greater than 500.

Regarding `Cn1cc(NC(=O)c2cc(NC(=O)c3ccc(/C=C/c4ccc5nsnc5c4)cc3)cn2C)cc1C(=O)NCCN1CCOCC1` [Compound 28, 4-({4-[(E)-2-(2,1,3-benzothiadiazol-5-yl)ethenyl]benzoyl}amino)-1-methyl-N-[1-methyl-5-({[2-(4-morpholinyl)ethyl]amino}carbonyl)-1H-pyrrol-3-yl]-1H-pyrrole-2-carboxamide], the pIC50 in assay [1] (setting [3]) and in assay [1] (setting [4]) was 8.14 in each case. Also, in assay [1], the IC50 was less than 40 nM. Also, the “% HEK 293 Inhibition at 20 μM” value with HEK 293 cells (20 μM, 72 h, HEK 293) is recorded as “N/A (N/A is an IC50 value > 20 μM)”. For the same compound, in the assay on HEK 293 cells, the “SI (selectivity index)” value is on record as greater than 2739.

As to `Cn1cc(NC(=O)c2cc(NC(=O)c3ccc(/C=C/c4ccc5nonc5c4)cc3)cn2C)cc1C(=O)NCCN1CCOCC1` [Compound 29, 4-({4-[(E)-2-(2,1,3-benzoxadiazol-5-yl)ethenyl]benzoyl}amino)-1-methyl-N-[1-methyl-5-({[2-(4-morpholinyl)ethyl]amino}carbonyl)-1H-pyrrol-3-yl]-1H-pyrrole-2-carboxamide], the pIC50 in assay [1] (setting [3]) and in assay [1] (setting [4]) was 7.72 in each case. Besides, the IC50 in assay [1] is less than 40 nM. Further, in the assay on HEK 293 cells (20 μM, 72 h, HEK 293), the “% HEK 293 Inhibition at 20 μM” value is “N/A (N/A is an IC50 value > 20 μM)”. Moreover, the “SI (selectivity index)” value in the assay on HEK 293 cells was greater than 1052.

For `CC(C)CCc1sc(NC(=O)c2cc(NC(=O)c3ccc(/C=C/c4ccc5ccccc5n4)cc3)cn2C)nc1C(=O)NCCN1CCOCC1` [Compound 23, 5-isopentyl-2-({[1-methyl-4-({4-[(E)-2-(2-quinolinyl)ethenyl]benzoyl}amino)-1H-pyrrol-2-yl]carbonyl}amino)-N-[2-(4-morpholinyl)ethyl]-1,3-thiazole-4-carboxamide], in assay [1] (setting [3]), the pIC50 is 6.21.

On to `CC(C)CCc1sc(NC(=O)c2cc(NC(=O)c3cc(/C=C/c4ccc([N+](=O)[O-])cc4)cn3C)cn2C)nc1C(=O)NCCCN(C)C` [Compound 13, N-[3-(dimethylamino)propyl]-5-isopentyl-2-[({1-methyl-4-[({1-methyl-4-[(E)-2-(4-nitrophenyl)ethenyl]-1H-pyrrol-2-yl}carbonyl)amino]-1H-pyrrol-2-yl}carbonyl)amino]-1,3-thiazole-4-carboxamide], for which the pIC50 in assay [1] (setting [3]) is 6.68; in assay [1] (Table S2 (supplement), T. b. brucei activity, read-out: IC50), 6.74.

Consider `CSc1ccc(/C=C/c2ccc3cc(C(=O)Nc4cc(C(=O)Nc5cc(C(=O)NCCN6CCOCC6)n(C)c5)n(C)c4)ccc3n2)cc1` [Compound 31, N-[1-methyl-5-({[1-methyl-5-({[2-(4-morpholinyl)ethyl]amino}carbonyl)-1H-pyrrol-3-yl]amino}carbonyl)-1H-pyrrol-3-yl]-2-{(E)-2-[4-(methylsulfanyl)phenyl]ethenyl}-6-quinolinecarboxamide], for which the pIC50 in assay [1] (setting [3]) was 5.30.

On to `N=C(N)c1ccc(-c2ccc(-c3ccc(C(=N)N)cc3)o2)cc1` [Furamidine, furamidine], for which, in assay [2], the “exposure time to destruction of the kinetoplast” value is listed as no more than 24 h.

Turning to `COc1ccc(C[C@H](N)C(=O)N[C@H]2[C@@H](O)[C@H](n3cnc4c(N(C)C)ncnc43)O[C@@H]2CO)cc1` [Puromycin, reference compound], the pIC50 with HEK 293 cells (Homo sapiens, HEK293, positive control, two separate independent experiments, read-out: IC50 against HEK 293 cells) was 6.46.
